Source: patent US6117975A, “Melanocortin receptor polypeptides MC-3, MC-4, and MC-5” (The Regents of the University of Michigan, priority 1996, dated 2000)
No end group written: not given here.

Columns and labels:
[1] = molecular target: T1, MC4 receptor (Homo sapiens, UniProt P32245); experiment: intracellular cAMP content in Hepa cells transfected with the MC4 receptor; assay type: cell-based
T1 construct: expressed in transfected cells; host or cells: COS-1 (transient, lipofection); Hepa rat hepatoma; CMVneo vector

[2] = system: endogenous vasopressin receptors; experiment: intracellular Ca++ concentration in Hepa cells, endogenous vasopressin receptors; assay type: cell-based, rat
Protocol: Measurement of Intracellular Ca++ Concentration ([Ca++]i). For these experiments, Hepa cells were detached by incubation in Ca^++ -free EBSS with 2.0 mM EDTA, loaded with 1 μM fura-2/AM (Molecular Probes, Eugene, Oreg.) for 20 min at 37° C. in EBSS containing 0.1% BSA and 25 mM HEPES, washed by centrifugation at 50 X g, and resuspended and maintained in EBSS buffer at room temperature until the time of experimentation. [Ca^++ ]i measurements of cells suspended in a quartz cuvette were obtained using a dual-wavelength modular fluorometer (Spex-Fluorolog 2, Spex Industries, Edison, N.J.) according to previously described methods. DelValle, J. et al., Am. J. Physiol. 262:G420-426 (1992).

[3] = molecular target: T2, MC3 receptor (Homo sapiens, UniProt P41968); experiment: [3H] inositol phosphate (IP) production in Hepa cells transfected with the MC3 receptor
Source text: Receptor Gene Expression. The coding region of the MC3 receptor gene was subcloned into the eukaryotic expression vector CMVneo using a polymerase chain reaction (PCR) strategy as previously described. […] The insert was subsequently checked by dideoxynucleotide sequencing to insure that no errors were induced by the PCR. A rat hepatoma cell line (Hepa) which lacks endogenous melanocortin receptors was transfected with the CMVneo/MC3 receptor construct using the calcium phosphate co-precipitation method. […] Cells were selected for resistance to the neomycin analogue Geneticin (Life Sciences) and clones were subsequently chosen for high levels of receptor mRNA expression by Northern blot analysis.
Inositol Phosphate (IP) Assays. Measurement of inositol phospholipid turnover in Hepa cells was performed according to a modification of previously published methods as follows. […] Cells grown to semi-confluence in multiwell plates were prelabeled with [2-^3 H] myo-inositol in DMEM for 24 hr, incubated in EBSS for 30 min, then incubated for another 15 min in EBSS with 10 mM LiCl. The final incubation was in media with experimental ligand added for up to three min after which ice cold 100% methanol was added and the cells were scraped and extracted with 2 ml chloroform, 10 μl HCl (13 N), and 200 μl of 100 mM EDTA in a 50 ml polypropylene tube. The mixture was then vortexed and centrifuged at 1,900 X g. The supernatant was removed and its pH was adjusted to 7.0 by adding 1 N NaOH. Waters Accel plus QMA SEP-PAK anion exchange cartridges (Waters Chromatography, Millipore Corporation, Milford, Mass.) were used to separate inositol phosphates under differing concentrations of formatelformic acid. The cartridges were pretreated by washing with 10 ml of a solution of 1 M ammonium formate in 0.1 M formic acid followed by 20 ml of distilled water. The samples were applied with a flow rate of approximately 10 ml/min using a 10 ml syringe. IPs were then eluted using 10 mM increments of ammonium formate in a stepwise fashion. Inositol monophosphate was eluted with 10 mM formic acid/100 mM ammonium formate/5 mM disodium tetraborate, inositol bisphosphate was eluted with 20 mM formic acid/200 mM ammonium formate/5 mM disodium tetraborate, and IP3 was eluted with 30 mM formic acid/300 mM ammonium formate/5 mM disodium tetraborate. […] Eluted radioactivity from the pooled fractions (total inositol phosphates) were measured by liquid-scintillation spectrometry (Beckman model LS7800 instrument).

[4] = system: chimeric receptor cH2R/MC3R-3i; experiment: [3H] IP production in Hepa cells transfected with chimeric cH2R/hMC3R-3i; assay type: cell-based; conditions: pretreatment, chimeric cH2R/MC3R-3i
Source text: Chimeric Receptor. […] The chimeric receptor (cH2R/MC3R-3i) was constructed by cassette mutation at the junction of the fifth and sixth transmembrane domains of cH2R. Six PCR primers were used to generate three DNA fragments which were subsequently ligated together. The three PCR-generated fragments consisted of 1) the 5' coding region of the cH2R receptor beginning just prior to the ATG codon and ending with the 3' end of the fifth transmembrane domain; 2) the portion of the MC3 receptor gene encoding its third intracytoplasmic loop; and 3) the 3' coding region of the cH2R beginning with that segment encoding the 5' end of the sixth transmembrane domain and ending slightly past the termination codon. The DNA fragments were cut with appropriate restriction enzymes at pre-engineered restriction sites designed so that the three fragments could be assembled together in only the correct alignment. Restriction sites were also designed to facilitate subcloning the chimeric receptor DNA into CMVneo and the sequencing vector M13. The nucleotide sequence of the CMVneo cH2R/MC3R-3i construct was confirmed prior to expression in Hepa cells.
Inositol Phosphate (IP) Assays.

[5] = molecular target: T2, MC3 receptor; experiment: cAMP generation in L-cells transfected with the MC3 receptor; assay type: cell-based; design: these were utilized to obtain full-length genomic clones by screening a genomic library; expressed in transfected cells; CMVneo vector
Source text: (§1) Receptor Expression. […] The sequences were subsequently checked by nucleotide sequencing to insure that no sequence errors were induced by PCR. L-cells (a mouse fibroblast-like cell line) were transfected using a calcium phosphate co-precipitation method as described in Chen, C. A. et al. Bio/Techniques 6:632-638 (1988). Permanently transfected L-cells were selected by resistance to the neomysin analogue G418, and receptor mRNA expression was checked by Northern blot analysis. […] COS-1 cells which were transiently transfected with the CMVneo/MC4R gene construct by lipofection as described in Feigner, P. L. et al., PNAS (USA) 84:7413-7417 using the Lipofectin Reagent (Life Technologies Inc.) were split into 12-well plates after 24 hr and assayed 36 hr post-transfection.
(§2) cAMP Assays. For these assays a cAMP assay kit (TRK 432, Amersham Corp.) was employed. […] The cells were maintained in Dulbecco's modified Eagle's medium (GIBCO) containing 4.5 g/100 ml glucose, 10% fetal calf serum, 100 units/ml penicillin and streptomycin, 1 mM sodium pyruvate, and 1 mg/ml Geneticin. […] An aliquot (0.5 ml) of Earle's balanced salt solution was placed into each well along with 5 μl of 2×10^-2 M isobutylmethylxanthine. Varying concentrations of agonist were added, and the cells were incubated to 30 min at 37° C. Ice-cold 30% trichloracetic acid (500 μl/well) was added to stop the reaction and precipitate cellular protein. The cells were scraped and transferred to 16×150-mm glass tubes, then placed on ice for 30 min. The precipitate was then centrifuged for 10 min at 1,900×g, and the supernatant was ether extracted, lyophilized, and resuspended in 50 mM Tris, 2 mM EDTA (pH 7.5). cAMP content was then measured by a competitive binding assay according to the assay instructions.

[6] = molecular target: T3, MC1 receptor (Homo sapiens, UniProt Q01726, R163Q/S90T); experiment: cAMP generation in L-cells transfected with the MC1 receptor; assay type: cell-based
T3 construct: expressed in transfected cells
T3 sequence (Q01726 1-317 S90T/R163Q): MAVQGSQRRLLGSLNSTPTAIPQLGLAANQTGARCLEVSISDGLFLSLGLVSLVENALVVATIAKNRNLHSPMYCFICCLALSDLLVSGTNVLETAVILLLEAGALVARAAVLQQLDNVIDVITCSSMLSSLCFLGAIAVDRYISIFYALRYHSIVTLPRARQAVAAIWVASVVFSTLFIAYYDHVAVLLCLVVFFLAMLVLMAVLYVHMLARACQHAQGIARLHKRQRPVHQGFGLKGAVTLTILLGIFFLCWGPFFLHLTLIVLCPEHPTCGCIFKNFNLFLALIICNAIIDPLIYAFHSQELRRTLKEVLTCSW
Source text: as §1, §2

[7] = molecular target: T2, MC3 receptor; experiment: intracellular cAMP content in Hepa cells transfected with the MC3 receptor; assay type: cell-based; design: these were utilized to obtain full-length genomic clones by screening a genomic library; expressed in transfected cells; CMVneo vector
Protocol: Receptor Expression. […] The sequences were subsequently checked by nucleotide sequencing to insure that no sequence errors were induced by PCR. […] A rat hepatoma cell line (Hepa) which lacks endogenous melanocortin receptors was also transfected with the CMVneo/MC3R and CMVneo/MC4R constructs.
cAMP Assays. For these assays a cAMP assay kit (TRK 432, Amersham Corp.) was employed. Cells transfected with the receptors were grown to confluence in 12-well (2.4×1.7 cm) tissue culture plates. The cells were maintained in Dulbecco's modified Eagle's medium (GIBCO) containing 4.5 g/100 ml glucose, 10% fetal calf serum, 100 units/ml penicillin and streptomycin, 1 mM sodium pyruvate, and 1 mg/ml Geneticin. For assays, this medium was removed and cells were washed twice with Earle's balanced salt solution containing 10 mM Hepes (pH 7.4), 1 mM glutamine, 26.5 mM sodium bicarbonate, and 100 mg/ml bovine serum albumin. An aliquot (0.5 ml) of Earle's balanced salt solution was placed into each well along with 5 μl of 2×10^-2 M isobutylmethylxanthine. Varying concentrations of agonist were added, and the cells were incubated to 30 min at 37° C. Ice-cold 30% trichloracetic acid (500 μl/well) was added to stop the reaction and precipitate cellular protein. The cells were scraped and transferred to 16×150-mm glass tubes, then placed on ice for 30 min. The precipitate was then centrifuged for 10 min at 1,900×g, and the supernatant was ether extracted, lyophilized, and resuspended in 50 mM Tris, 2 mM EDTA (pH 7.5). cAMP content was then measured by a competitive binding assay according to the assay instructions.
Receptor Gene Expression. The coding region of the MC3 receptor gene was subcloned into the eukaryotic expression vector CMVneo using a polymerase chain reaction (PCR) strategy as previously described. […] The insert was subsequently checked by dideoxynucleotide sequencing to insure that no errors were induced by the PCR. […]

[8] = molecular target: T4, mMC5 receptor (Mus musculus, UniProt P41149); experiment: cAMP generation in L-cells transfected with the mMC5 receptor; assay type: cell-based
T4 construct: expressed in transfected cells
Source text: as §1, §2

[9] = molecular target: T1, MC4 receptor; experiment: cAMP generation in L-cells transfected with the MC4 receptor gene; assay type: cell-based
Source text: as §1, §2

[10] = molecular target: T1, MC4 receptor; experiment: cAMP generation in COS-1 cells transiently transfected with the MC4 receptor gene; assay type: cell-based
Source text: as §1
cAMP Assays. For these assays a cAMP assay kit (TRK 432, Amersham Corp.) was employed. […] The cells were maintained in Dulbecco's modified Eagle's medium (GIBCO) containing 4.5 g/100 ml glucose, 10% fetal calf serum, 100 units/ml penicillin and streptomycin, 1 mM sodium pyruvate, and 1 mg/ml Geneticin. […] The precipitate was then centrifuged for 10 min at 1,900×g, and the supernatant was ether extracted, lyophilized, and resuspended in 50 mM Tris, 2 mM EDTA (pH 7.5). cAMP content was then measured by a competitive binding assay according to the assay instructions.

[11] = molecular target: T5, MC1 receptor (Homo sapiens, UniProt Q01726); conditions: Chhajlani et al. 1992; cited from earlier work
T5 construct: host or cells: Cos-7 cells transfected with α-MSH receptor cDNA

[12] = system: MC1 receptor; conditions: Mountjoy et al. 1992; cited from earlier work
[13] = read-out: ED50, cAMP generation

T1 sequence (P32245 whole entry): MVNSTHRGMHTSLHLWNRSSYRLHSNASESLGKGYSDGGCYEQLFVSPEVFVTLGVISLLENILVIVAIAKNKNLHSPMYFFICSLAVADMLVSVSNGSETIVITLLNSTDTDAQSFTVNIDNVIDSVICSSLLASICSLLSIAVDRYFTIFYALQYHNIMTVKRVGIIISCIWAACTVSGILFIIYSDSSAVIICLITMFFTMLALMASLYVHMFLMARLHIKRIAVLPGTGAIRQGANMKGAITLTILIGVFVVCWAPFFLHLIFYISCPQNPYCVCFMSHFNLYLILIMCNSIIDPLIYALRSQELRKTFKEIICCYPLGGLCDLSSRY
T4 sequence (P41149 whole entry): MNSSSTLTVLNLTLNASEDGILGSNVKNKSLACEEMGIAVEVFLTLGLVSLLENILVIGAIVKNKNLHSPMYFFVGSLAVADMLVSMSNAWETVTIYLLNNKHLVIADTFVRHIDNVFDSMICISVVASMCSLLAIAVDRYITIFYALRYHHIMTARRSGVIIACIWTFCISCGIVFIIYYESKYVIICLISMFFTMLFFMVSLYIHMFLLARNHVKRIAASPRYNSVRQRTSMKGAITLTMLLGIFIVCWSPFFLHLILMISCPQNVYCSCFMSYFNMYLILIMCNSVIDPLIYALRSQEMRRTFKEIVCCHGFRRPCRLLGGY
T2 sequence (P41968 whole entry): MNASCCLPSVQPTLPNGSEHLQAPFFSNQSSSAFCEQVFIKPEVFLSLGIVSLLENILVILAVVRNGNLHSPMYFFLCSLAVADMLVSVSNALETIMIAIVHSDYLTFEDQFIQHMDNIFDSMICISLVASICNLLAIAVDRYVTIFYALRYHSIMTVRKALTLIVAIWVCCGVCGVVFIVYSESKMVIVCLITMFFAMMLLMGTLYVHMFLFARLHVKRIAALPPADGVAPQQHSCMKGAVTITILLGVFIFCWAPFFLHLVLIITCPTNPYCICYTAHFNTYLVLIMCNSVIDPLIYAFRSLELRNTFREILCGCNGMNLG
T5 sequence (Q01726 whole entry): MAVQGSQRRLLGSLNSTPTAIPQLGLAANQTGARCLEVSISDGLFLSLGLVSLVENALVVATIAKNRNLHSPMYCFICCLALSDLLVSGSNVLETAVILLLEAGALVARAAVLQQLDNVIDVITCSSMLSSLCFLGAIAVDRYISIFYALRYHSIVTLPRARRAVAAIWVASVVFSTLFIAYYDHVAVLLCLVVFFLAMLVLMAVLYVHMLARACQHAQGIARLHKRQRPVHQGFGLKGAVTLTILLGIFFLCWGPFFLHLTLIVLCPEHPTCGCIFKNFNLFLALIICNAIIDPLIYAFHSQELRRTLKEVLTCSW

## CSCC[C@H](NC(=O)[C@@H](NC(=O)[C@@H](N)Cc1ccc(O)cc1)C(C)C)C(=O)NCC(=O)N[C@@H](Cc1c[nH]cn1)C(=O)N[C@@H](Cc1ccccc1)C(=O)N[C@@H](CCCNC(=N)N)C(=O)N[C@@H](Cc1c[nH]c2ccccc12)C(=O)N[C@@H](CC(=O)O)C(=O)N[C@@H](CCCNC(=N)N)C(=O)N1CCC[C@H]1C(=O)NCC(=O)O [Pro^11 y-MSH]
[1]; α-MSH as reference for maximum response
  efficacy, intracellular cAMP: 75%
[1]; α-MSH dose response curve as reference for maximum response
  EC50: 100 nM

## Thr^1, Pro^11 y-MSH
[1]
  cAMP response (in words): diminished both the potency and efficacy

## NC(=O)CC[C@@H]1NC(=O)[C@H](Cc2ccccc2)NC(=O)[C@H](Cc2ccc(O)cc2)NC(=O)[C@@H](N)CSSC[C@@H](C(=O)N2CCC[C@H]2C(=O)N[C@@H](CCCN=C(N)N)C(=O)NCC(N)=O)NC(=O)[C@H](CC(N)=O)NC1=O [vasopressin]
[2]
  effect on [Ca++]i (in words): increase in [Ca^++ ]i upon stimulation of their endogenous vasopressin receptors

## CSCC[C@H](N)C(=O)N[C@@H](CCC(=O)O)C(=O)N[C@@H](Cc1c[nH]cn1)C(=O)N[C@@H](Cc1ccccc1)C(=O)N[C@@H](CCCNC(=N)N)C(=O)N[C@@H](Cc1c[nH]c2ccccc12)C(=O)NCC(=O)O [ACTH(4-10)]
[1]; read-out: efficacy, % of the maximal response of ACTH (1-13)
  Emax: 30%

## CCCC(=O)Nc1ncnc2c1ncn2[C@@H]1O[C@@H]2COP(=O)(O)O[C@H]2[C@H]1OC(=O)CCC [dbcAMP, dibutryl cAMP]
[3]
  effect on α-MSH stimulated [3H]-IP production (in words): dose dependently inhibited the level of [^3 H]-IP turnover in response to α-MSH

## O=S(=O)(NCCNCC=Cc1ccc(Br)cc1)c1cccc2cnccc12 [H-89, N-[2-(p-bromocinnamyl-amino)ethyl]-5-isoquinolinesulfonamide]
[4]
  effect on inhibitory phase of histamine [3H]-IP dose response curve (in words): abolished by pretreatment with H-89
[3]
  effect on α-MSH stimulated [3H]-IP production (in words): restoration of the higher levels of [^3 H]-IP products observed with 10^-11 M α-MSH
[3]; pretreatment, 10^-8 M α-MSH, Hepa cells, MC3 receptor
  concentration of maximum effect on α-MSH stimulated [3H]-IP production: 1 µM

## [des-acetyl] α-MSH
[5]
  cAMP response (in words): identical to those observed for ACTH and α-MSH
[1]
  cAMP response (in words): no difference was observed
[6]
  cAMP response (in words): identical to those observed for ACTH and α-MSH
[7]
  cAMP response (in words): no difference was observed

## β-endorphin
[5]
  cAMP response (in words): neither the MC1 receptor nor the MC3 receptor responded
[6]
  cAMP response (in words): neither the MC1 receptor nor the MC3 receptor responded
[8]
  cAMP response (in words): Neither were the other products of pro-opiomelanocortin processing, β-endorphin, met-enkephlin, or porcine β-lipotropin active
[9]
  cAMP response (in words): did not respond

## Rat ACTH: rat ACTH, which differs from human ACTH in two amino acids (SYSMEHFRWGKPVGKKRRPVKVYPNVAENESAEAFPLEF; Corticotropin; UniProt P01194 124-162, looked up)
[8]
  cAMP response (in words): produced the same results

## SYSMEHFRWGKPVGKKRRPVKVYPNGAEDESAEAFPLEF [ACTH, ACTH(1-39)] [listing 1 of 2 here]
[5]
  cAMP response (in words): equal potency and efficacy
[6]
  cAMP response (in words): equal potency and efficacy
[10]
  cAMP response (in words): marked increase in intracellular cAMP content
[3]; HepA, read-out: maximal stimulation of [3H]-IP production, % of basal unstimulated value
  Emax: 155%
[3]; Hepa cells, MC3 receptor
  inositol phospholipid turnover dose-response (in words): At low doses (below 10^-11 M) there was a clear stimulatory effect, however, at higher doses, there was a dose dependent inhibitory effect
[11]
  affinity in displacing 125I-labeled [Nle4,D-Phe7]α-MSH (in words): equal affinities
[12]
  cAMP production via the MC1 receptor (in words): less potent and less efficacious than α-MSH
[7]
  cAMP production relative to control unstimulated levels at maximal doses: exceeded 15 times the control
  cAMP response (in words): stimulated cAMP production
[9]
  cAMP response (in words): equal potency and efficacy

## [Met]enkephalin
[5]
  cAMP response (in words): neither the MC1 receptor nor the MC3 receptor responded
[6]
  cAMP response (in words): neither the MC1 receptor nor the MC3 receptor responded
[8]
  cAMP response (in words): Neither were the other products of pro-opiomelanocortin processing, β-endorphin, met-enkephlin, or porcine β-lipotropin active
[9]
  cAMP response (in words): did not respond

## SYSMEHFRWGKPVGKKRRPVKVYPNGAEDESAEAFPLEF [ACTH, ACTH(1-39)] [listing 2 of 2 here]
[5]; [13]
  EC50: ~1 nM
[6]; [13]
  EC50: ~1 nM
[9]; read-out: half-maximal effect (EC50), intracellular cAMP
  EC50: 1 nM

B1: β-lipotropin (peptide, UniProt P01192 177-267, looked up, listed as Lipotropin beta)
Lipotropin beta: ELAGAPPEPARDPEAPAEGAAARAELEYGLVAEAEAAEKKDEGPYKMEHFRWGSPPKDKRYGGFMTSEKSQTPLVTLFKNAIVKNAHKKGQ
notes: product of pro-opiomelanocortin processing
[8]
  cAMP response (in words): Neither were the other products of pro-opiomelanocortin processing, β-endorphin, met-enkephlin, or porcine β-lipotropin active
[9]
  cAMP response (in words): small increase in cAMP
